IC50, Ratio and Ki data for 5 molecules are collected here from ChEMBL document CHEMBL1131540 (Bioorg Med Chem Lett, 1998).

In assay [1] the target is T1, Mu-type opioid receptor (Cavia porcellus, UniProt P97266). The assay can be described thus: Inhibitory concentration required against biological activity of mu opioid receptor from guinea pig ileum (GPI). The class given is tissue-based.
Assay [2] deals with Opioid receptors; mu & delta (Homo sapiens) (UniProt P41143+P35372). Put plainly: Selectivity ratio of binding affinity towards delta opioid receptor to that of mu opioid receptor. The assay is classed as protein assay.
In assay [3] the test system is Opioid receptors; mu & delta. Put plainly: Ratio of activity of mu opioid receptor from guinea pig ileum (GPI) to that of delta opioid receptor from mouse vas deferens (MVD). The assay is classed as tissue-based.
Assay [4] deals with T1, Mu-type opioid receptor. The assay can be described thus: Compound was tested for binding affinity towards mu opioid receptor in guinea pig brain homogenates using [3H]CTOP as radioligand. The assay is classed as tissue-based.
For assay [5], the target named is Delta-type opioid receptor (Mus musculus, UniProt P32300). Put plainly: Inhibitory concentration required against biological activity of Opioid receptor delta 1 from mouse vas deferens (MVD).

Structures are written as SMILES.

T1 sequence (P97266 whole entry): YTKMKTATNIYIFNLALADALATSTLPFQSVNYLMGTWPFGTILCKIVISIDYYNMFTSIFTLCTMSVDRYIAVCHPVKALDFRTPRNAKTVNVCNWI
Sequence of Opioid receptors; mu & delta (Homo sapiens) (P35372 whole entry, looked up): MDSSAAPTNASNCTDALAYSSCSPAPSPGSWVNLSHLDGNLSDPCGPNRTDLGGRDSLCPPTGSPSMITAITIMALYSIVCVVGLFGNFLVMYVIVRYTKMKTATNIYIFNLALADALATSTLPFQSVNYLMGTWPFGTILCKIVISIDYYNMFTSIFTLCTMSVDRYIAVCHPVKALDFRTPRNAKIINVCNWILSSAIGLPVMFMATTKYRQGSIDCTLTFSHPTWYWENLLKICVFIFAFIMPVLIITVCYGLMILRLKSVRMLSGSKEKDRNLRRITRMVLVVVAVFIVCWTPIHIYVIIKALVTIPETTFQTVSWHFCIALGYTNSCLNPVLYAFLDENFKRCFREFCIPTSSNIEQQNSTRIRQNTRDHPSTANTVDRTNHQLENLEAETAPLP
Sequence of Opioid receptors; mu & delta (Homo sapiens) (P41143 whole entry, looked up): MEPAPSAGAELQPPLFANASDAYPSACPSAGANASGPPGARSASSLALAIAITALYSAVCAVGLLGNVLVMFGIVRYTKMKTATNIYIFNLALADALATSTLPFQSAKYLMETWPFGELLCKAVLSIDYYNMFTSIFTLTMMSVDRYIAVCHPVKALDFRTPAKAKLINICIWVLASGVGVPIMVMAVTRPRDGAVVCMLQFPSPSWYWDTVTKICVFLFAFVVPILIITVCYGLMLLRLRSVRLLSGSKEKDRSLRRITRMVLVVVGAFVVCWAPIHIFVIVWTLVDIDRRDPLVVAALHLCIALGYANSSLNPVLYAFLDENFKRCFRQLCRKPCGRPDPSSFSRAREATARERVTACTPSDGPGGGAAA
Sequence of Delta-type opioid receptor (P32300 whole entry): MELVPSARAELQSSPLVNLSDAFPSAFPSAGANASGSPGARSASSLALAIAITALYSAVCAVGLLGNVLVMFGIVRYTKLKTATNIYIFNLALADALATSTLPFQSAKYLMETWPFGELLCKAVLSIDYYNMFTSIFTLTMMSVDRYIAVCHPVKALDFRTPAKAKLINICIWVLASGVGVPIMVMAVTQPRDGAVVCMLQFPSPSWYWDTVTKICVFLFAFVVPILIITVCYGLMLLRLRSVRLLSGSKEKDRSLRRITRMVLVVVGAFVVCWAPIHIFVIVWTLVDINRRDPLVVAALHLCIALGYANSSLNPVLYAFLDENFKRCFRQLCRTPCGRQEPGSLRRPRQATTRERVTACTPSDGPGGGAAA

By IC50 is commonly meant the concentration that gives 50% inhibition. In general, Ki refers to a measure of affinity in units of concentration, obtained from inhibition or displacement. With `C[C@@H](NC(=O)[C@@H](N)Cc1ccc(O)cc1)C(=O)NCC(=O)N[C@@H](Cc1c(F)c(F)c(F)c(F)c1F)C(=O)NNC(=O)[C@H](Cc1c(F)c(F)c(F)c(F)c1F)NC(=O)CNC(=O)[C@@H](C)NC(=O)[C@@H](N)Cc1ccc(O)cc1`, the IC50 against Mu-type opioid receptor [1] came out at 8.9 nM; in assay [5] it was 25 nM. The Ratio in assay [2] is 0.12; in assay [3] it was 0.36. For the same molecule, the Ki on Mu-type opioid receptor [4] was 0.91 nM.

Turning to `C[C@@H](NC(=O)[C@@H](N)Cc1ccc(O)cc1)C(=O)NCC(=O)N[C@@H](Cc1ccc2ccccc2c1)C(=O)NNC(=O)[C@H](Cc1ccc2ccccc2c1)NC(=O)CNC(=O)[C@@H](C)NC(=O)[C@@H](N)Cc1ccc(O)cc1`, the IC50 on Mu-type opioid receptor [1] was determined as 2.2 nM; in assay [5], 9.3 nM. Also, the Ratio in assay [2] was 0.23; in assay [3], 0.24. At Mu-type opioid receptor [4], this molecule came in with an inhibition constant Ki of 1.7 nM.

With `C[C@@H](NC(=O)[C@@H](N)Cc1ccc(O)cc1)C(=O)NCC(=O)N[C@@H](Cc1cccc2ccccc12)C(=O)NNC(=O)[C@H](Cc1cccc2ccccc12)NC(=O)CNC(=O)[C@@H](C)NC(=O)[C@@H](N)Cc1ccc(O)cc1`, the IC50 was 1.7 nM at Mu-type opioid receptor [1] and 17 nM in assay [5]. Besides, the values for the Ratio in assay [2] and in assay [3] were 0.12 and 0.1, respectively. The molecule also returned an inhibition constant Ki on Mu-type opioid receptor [4] of 0.79 nM.

On to `CC(NC(=O)[C@@H](N)Cc1ccc(O)cc1)C(=O)NCC(=O)N[C@H](C(=O)NNC(=O)[C@@H](NC(=O)CNC(=O)C(C)NC(=O)[C@@H](N)Cc1ccc(O)cc1)[C@@H](C)c1ccccc1)[C@@H](C)c1ccccc1` (single isomer, unassigned), for which the IC50 against Mu-type opioid receptor [1] is 41 nM; in assay [5], 120 nM. Also, the figures for the Ratio in assay [2] and in assay [3] were 0.27 and 0.34, respectively. On Mu-type opioid receptor [4], this molecule yielded a Ki of 3 nM.

With `C[C@H](c1ccccc1)[C@H](NC(=O)CNC(=O)[C@@H](C)NC(=O)[C@@H](N)Cc1ccc(O)cc1)C(=O)NNC(=O)[C@@H](NC(=O)CNC(=O)[C@@H](C)NC(=O)[C@@H](N)Cc1ccc(O)cc1)[C@H](C)c1ccccc1` (stereo in doubt), the IC50 against Mu-type opioid receptor [1] amounted to 21 nM; in assay [5], 180 nM. The values for the Ratio in assay [2] and in assay [3] were 0.012 and 0.12, respectively. In addition, the inhibitory constant (Ki) on Mu-type opioid receptor [4] was 1.3 nM.
